# Reference: the kinase profiling compilation of Christmann-Franck et al. (2016)
# Tests used:
# Assay in all cases: radiometric filter-binding kinase assay
# MAP3K9 (human) = MAP3K9 (human) (UniProt P80192)
# MAPK11 (human) = MAPK11 (human) (UniProt Q15759)
# PAK4 (human) = PAK4 (human) (UniProt O96013)
# HIPK3 (human) = HIPK3 (human) (UniProt Q9H422)
# PAK6 (human) = PAK6 (human) (UniProt Q9NQU5)
# DAPK1 (human) = DAPK1 (human) (UniProt P53355)
# HIPK1 (human) = HIPK1 (human) (UniProt Q86Z02)
# LCK (mouse) = conditions: accession and sequence are those of the human protein
# [1] = tested on: AKT1 (human), P31749 [S473D]
# MARK3 (human) = MARK3 (human) (UniProt P27448)
# MARK1 (human) = MARK1 (human) (UniProt Q9P0L2)
# CaMK1 (human) = CaMK1 (human) (UniProt Q14012)
# IKBKE (human) = IKBKE (human) (UniProt Q14164)
# NUAK1 (human) = NUAK1 (human) (UniProt O60285)
# DYRK3 (human) = DYRK3 (human) (UniProt O43781)
# MST4 (human) = MST4 (human) (UniProt Q9P289)
# PAK7 (human) = PAK7 (human) (UniProt Q9P286)
# BTK (human) = BTK (human) (UniProt Q06187)
# DYRK1A (human) = DYRK1A (human) (UniProt Q13627)
# EPHB3 (human) = EPHB3 (human) (UniProt P54753)
# MAPK14 (human) = MAPK14 (human) (UniProt Q16539)
# MAPKAPK5 (human) = MAPKAPK5 (human) (UniProt Q8IW41)
# DYRK2 (human) = DYRK2 (human) (UniProt Q92630)
# ROCK2 (rat) = conditions: accession and sequence are those of the human protein
# MAP2K6 (human) = MAP2K6 (human) (UniProt P52564)
# MAPK13 (human) = MAPK13 (human) (UniProt O15264)
# EPHA2 (human) = EPHA2 (human) (UniProt P29317)
# RPS6KA5 KD1 KD2 (human) = RPS6KA5 KD1 KD2 (human) (UniProt O75582)
# CSNK2A1 (human) = CSNK2A1 (human) (UniProt P68400)
# HIPK2 (human) = HIPK2 (human) (UniProt Q9H2X6)
# PRKCZ (human) = PRKCZ (human) (UniProt Q05513)
# EEF2K (human) = EEF2K (human) (UniProt O00418)
# TAOK1 (human) = TAOK1 (human) (UniProt Q7L7X3)
# EPHB1 (human) = EPHB1 (human) (UniProt P54762)
# ERBB4 (human) = ERBB4 (human) (UniProt Q15303)
# NEK6 (human) = NEK6 (human) (UniProt Q9HC98)
# TAOK1 (human), sequence (Q7L7X3 whole entry, looked up): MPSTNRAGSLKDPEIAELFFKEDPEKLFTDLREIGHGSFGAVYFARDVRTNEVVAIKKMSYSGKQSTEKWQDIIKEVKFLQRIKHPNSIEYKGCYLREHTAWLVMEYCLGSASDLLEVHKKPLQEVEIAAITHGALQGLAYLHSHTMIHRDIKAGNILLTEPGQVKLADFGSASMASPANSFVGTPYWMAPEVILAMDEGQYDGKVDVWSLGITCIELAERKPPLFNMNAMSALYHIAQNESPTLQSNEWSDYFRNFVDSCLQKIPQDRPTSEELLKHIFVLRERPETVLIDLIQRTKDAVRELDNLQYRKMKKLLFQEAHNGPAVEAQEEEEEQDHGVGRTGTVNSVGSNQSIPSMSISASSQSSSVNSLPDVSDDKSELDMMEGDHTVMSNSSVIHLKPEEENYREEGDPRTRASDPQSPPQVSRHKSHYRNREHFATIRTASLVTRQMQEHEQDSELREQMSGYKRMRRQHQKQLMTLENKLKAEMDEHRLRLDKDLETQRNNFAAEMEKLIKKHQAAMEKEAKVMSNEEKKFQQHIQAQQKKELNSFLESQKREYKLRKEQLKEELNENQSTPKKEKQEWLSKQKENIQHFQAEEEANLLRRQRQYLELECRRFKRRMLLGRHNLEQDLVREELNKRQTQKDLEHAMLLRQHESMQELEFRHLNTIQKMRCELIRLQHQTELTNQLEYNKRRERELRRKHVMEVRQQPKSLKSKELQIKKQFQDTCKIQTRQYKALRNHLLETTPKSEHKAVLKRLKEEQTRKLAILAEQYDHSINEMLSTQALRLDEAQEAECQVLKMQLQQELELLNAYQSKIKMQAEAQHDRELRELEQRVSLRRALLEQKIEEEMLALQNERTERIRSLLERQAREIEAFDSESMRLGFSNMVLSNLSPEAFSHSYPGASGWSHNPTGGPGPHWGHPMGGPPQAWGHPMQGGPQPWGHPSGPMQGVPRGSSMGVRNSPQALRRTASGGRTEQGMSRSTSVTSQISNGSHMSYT
# IKBKE (human), sequence (Q14164 whole entry, looked up): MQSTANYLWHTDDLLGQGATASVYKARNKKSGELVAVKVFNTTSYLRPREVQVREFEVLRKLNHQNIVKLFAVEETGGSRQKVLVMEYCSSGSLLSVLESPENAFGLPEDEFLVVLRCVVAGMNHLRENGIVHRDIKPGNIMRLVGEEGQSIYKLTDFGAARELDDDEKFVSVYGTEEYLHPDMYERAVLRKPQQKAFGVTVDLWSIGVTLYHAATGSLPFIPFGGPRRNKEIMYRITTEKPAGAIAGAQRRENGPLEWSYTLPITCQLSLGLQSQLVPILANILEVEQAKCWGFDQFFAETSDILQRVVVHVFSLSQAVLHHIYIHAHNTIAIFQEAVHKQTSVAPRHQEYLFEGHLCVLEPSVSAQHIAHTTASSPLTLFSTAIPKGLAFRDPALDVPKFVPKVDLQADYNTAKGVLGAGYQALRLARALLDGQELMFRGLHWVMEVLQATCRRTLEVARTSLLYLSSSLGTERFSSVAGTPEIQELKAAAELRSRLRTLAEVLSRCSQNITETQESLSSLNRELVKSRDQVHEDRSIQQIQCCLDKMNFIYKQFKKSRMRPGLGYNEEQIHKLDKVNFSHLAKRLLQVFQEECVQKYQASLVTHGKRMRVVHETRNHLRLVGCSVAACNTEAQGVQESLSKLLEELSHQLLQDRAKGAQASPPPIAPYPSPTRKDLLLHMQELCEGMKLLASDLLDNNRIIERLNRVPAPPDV
# MAPKAPK5 (human), sequence (Q8IW41 whole entry, looked up): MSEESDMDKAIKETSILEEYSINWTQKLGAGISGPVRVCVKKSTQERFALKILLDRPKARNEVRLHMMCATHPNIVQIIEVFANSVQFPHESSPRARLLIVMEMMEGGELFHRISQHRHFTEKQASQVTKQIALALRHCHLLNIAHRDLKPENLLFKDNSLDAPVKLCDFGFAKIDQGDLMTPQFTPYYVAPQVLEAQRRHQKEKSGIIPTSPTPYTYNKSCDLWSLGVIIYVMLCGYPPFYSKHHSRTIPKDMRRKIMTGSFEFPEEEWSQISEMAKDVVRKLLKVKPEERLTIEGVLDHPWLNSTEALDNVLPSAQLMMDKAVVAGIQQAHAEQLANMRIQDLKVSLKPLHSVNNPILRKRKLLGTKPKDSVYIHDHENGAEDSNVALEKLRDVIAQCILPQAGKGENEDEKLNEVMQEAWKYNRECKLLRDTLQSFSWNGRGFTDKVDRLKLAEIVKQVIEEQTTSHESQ
# DYRK2 (human), sequence (Q92630 whole entry, looked up): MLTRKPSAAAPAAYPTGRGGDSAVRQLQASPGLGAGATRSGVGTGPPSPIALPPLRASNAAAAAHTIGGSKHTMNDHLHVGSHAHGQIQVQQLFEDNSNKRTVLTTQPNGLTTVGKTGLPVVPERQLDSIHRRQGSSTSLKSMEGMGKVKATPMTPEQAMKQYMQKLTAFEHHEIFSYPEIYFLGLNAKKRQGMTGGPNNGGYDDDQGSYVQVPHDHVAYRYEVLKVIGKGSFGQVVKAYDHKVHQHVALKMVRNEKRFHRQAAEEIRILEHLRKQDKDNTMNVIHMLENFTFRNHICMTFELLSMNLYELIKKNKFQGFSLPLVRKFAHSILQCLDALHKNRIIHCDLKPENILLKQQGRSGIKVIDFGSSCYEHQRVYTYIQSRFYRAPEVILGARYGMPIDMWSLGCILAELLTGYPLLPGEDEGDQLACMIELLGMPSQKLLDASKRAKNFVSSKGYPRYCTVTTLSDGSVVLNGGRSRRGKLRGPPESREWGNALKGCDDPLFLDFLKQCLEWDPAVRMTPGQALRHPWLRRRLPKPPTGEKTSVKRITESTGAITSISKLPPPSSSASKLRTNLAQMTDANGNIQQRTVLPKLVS
# PRKCZ (human), sequence (Q05513 whole entry, looked up): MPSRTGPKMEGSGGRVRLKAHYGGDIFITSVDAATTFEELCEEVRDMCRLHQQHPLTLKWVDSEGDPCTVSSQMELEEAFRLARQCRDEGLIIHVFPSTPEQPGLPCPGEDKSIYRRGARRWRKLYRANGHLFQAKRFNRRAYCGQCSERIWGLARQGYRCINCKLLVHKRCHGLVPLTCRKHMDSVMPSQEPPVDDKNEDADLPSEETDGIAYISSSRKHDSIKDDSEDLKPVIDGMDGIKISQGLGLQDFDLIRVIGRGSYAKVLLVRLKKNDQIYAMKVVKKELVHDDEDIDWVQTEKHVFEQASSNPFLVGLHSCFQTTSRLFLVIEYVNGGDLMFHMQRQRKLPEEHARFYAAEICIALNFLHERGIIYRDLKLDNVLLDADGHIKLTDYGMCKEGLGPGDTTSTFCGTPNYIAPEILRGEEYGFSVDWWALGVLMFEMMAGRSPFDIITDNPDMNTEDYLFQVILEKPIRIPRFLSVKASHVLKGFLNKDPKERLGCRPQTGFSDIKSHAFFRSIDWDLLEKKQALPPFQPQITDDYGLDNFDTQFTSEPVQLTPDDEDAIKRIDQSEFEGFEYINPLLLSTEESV
# NUAK1 (human), sequence (O60285 whole entry, looked up): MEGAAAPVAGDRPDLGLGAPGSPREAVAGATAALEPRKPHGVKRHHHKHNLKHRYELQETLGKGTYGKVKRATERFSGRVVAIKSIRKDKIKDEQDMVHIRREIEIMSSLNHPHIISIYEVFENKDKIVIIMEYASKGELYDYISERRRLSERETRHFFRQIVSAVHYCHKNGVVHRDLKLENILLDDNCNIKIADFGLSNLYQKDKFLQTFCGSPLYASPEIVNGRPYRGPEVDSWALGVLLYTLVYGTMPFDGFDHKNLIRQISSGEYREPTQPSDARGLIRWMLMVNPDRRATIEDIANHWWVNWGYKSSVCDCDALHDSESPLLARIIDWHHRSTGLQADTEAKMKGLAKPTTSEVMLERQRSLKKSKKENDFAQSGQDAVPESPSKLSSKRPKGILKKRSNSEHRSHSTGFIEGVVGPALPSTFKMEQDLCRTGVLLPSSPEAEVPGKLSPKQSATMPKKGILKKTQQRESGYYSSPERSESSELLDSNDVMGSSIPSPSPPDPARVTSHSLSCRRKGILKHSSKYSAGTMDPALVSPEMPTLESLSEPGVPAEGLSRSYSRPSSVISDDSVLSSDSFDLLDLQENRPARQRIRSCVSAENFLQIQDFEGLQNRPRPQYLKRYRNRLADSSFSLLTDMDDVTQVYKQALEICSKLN
# MAPK14 (human), sequence (Q16539 whole entry, looked up): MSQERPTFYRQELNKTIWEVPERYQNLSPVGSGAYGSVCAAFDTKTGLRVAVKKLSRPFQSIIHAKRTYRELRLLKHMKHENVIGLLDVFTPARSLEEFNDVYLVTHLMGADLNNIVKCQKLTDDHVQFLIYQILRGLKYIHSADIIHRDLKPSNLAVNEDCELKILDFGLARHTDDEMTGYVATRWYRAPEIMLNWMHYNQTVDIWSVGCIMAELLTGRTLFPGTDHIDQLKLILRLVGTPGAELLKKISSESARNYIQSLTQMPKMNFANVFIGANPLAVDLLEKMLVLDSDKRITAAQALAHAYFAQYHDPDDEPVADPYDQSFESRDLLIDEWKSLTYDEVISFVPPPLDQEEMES
# MAPK11 (human), sequence (Q15759 whole entry, looked up): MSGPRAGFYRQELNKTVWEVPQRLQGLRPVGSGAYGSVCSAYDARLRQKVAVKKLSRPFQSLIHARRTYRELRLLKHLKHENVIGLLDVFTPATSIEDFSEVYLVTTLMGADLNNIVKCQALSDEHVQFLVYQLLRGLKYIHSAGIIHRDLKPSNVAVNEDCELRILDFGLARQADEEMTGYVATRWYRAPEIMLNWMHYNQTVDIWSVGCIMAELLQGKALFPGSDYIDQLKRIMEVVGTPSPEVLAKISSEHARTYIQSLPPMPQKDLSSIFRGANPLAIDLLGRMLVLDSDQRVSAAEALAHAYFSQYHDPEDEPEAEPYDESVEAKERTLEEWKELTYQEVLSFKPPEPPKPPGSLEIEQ
compound,measurement,setting,value
CCCCCc1ccc(/C=C/[C@H](O)[C@@H](CO)NC)cc1,residual activity,MAP3K9 (human); compound 0.1 µM,105%
same,residual activity,MAP3K9 (human); compound 1.0 µM,108%
same,residual activity,MAP3K9 (human); compound 10.0 µM,100%
same,residual activity,MAPK11 (human); compound 0.1 µM,99%
same,residual activity,MAPK11 (human); compound 1.0 µM,106%
same,residual activity,MAPK11 (human); compound 10.0 µM,95%
same,residual activity,PAK4 (human); compound 0.1 µM,91%
same,residual activity,PAK4 (human); compound 1.0 µM,91%
same,residual activity,PAK4 (human); compound 10.0 µM,85%
same,residual activity,HIPK3 (human); compound 0.1 µM,118%
same,residual activity,HIPK3 (human); compound 1.0 µM,112%
same,residual activity,HIPK3 (human); compound 10.0 µM,102%
same,residual activity,PAK6 (human); compound 0.1 µM,105%
same,residual activity,PAK6 (human); compound 1.0 µM,108%
same,residual activity,PAK6 (human); compound 10.0 µM,103%
same,residual activity,DAPK1 (human); compound 0.1 µM,109%
same,residual activity,DAPK1 (human); compound 1.0 µM,101%
same,residual activity,DAPK1 (human); compound 10.0 µM,103%
same,residual activity,HIPK1 (human); compound 0.1 µM,92%
same,residual activity,HIPK1 (human); compound 1.0 µM,112%
same,residual activity,HIPK1 (human); compound 10.0 µM,94%
same,residual activity,LCK (mouse); compound 0.1 µM,106%
same,residual activity,LCK (mouse); compound 1.0 µM,92%
same,residual activity,LCK (mouse); compound 10.0 µM,84%
same,residual activity,[1]; compound 0.1 µM,99%
same,residual activity,[1]; compound 1.0 µM,97%
same,residual activity,MARK3 (human); compound 0.1 µM,101%
same,residual activity,MARK3 (human); compound 1.0 µM,107%
same,residual activity,MARK3 (human); compound 10.0 µM,105%
same,residual activity,MARK1 (human); compound 0.1 µM,114%
same,residual activity,MARK1 (human); compound 1.0 µM,112%
same,residual activity,MARK1 (human); compound 10.0 µM,104%
same,residual activity,CaMK1 (human); compound 0.1 µM,106%
same,residual activity,CaMK1 (human); compound 1.0 µM,101%
same,residual activity,CaMK1 (human); compound 10.0 µM,89%
same,residual activity,IKBKE (human); compound 0.1 µM,106%
same,residual activity,IKBKE (human); compound 1.0 µM,95%
same,residual activity,IKBKE (human); compound 10.0 µM,86%
same,residual activity,NUAK1 (human); compound 0.1 µM,105%
same,residual activity,NUAK1 (human); compound 1.0 µM,108%
same,residual activity,NUAK1 (human); compound 10.0 µM,101%
same,residual activity,DYRK3 (human); compound 0.1 µM,93%
same,residual activity,DYRK3 (human); compound 1.0 µM,98%
same,residual activity,DYRK3 (human); compound 10.0 µM,93%
same,residual activity,MST4 (human); compound 0.1 µM,116%
same,residual activity,MST4 (human); compound 1.0 µM,96%
same,residual activity,MST4 (human); compound 10.0 µM,108%
same,residual activity,PAK7 (human); compound 0.1 µM,104%
same,residual activity,PAK7 (human); compound 1.0 µM,100%
same,residual activity,PAK7 (human); compound 10.0 µM,101%
same,residual activity,BTK (human); compound 1.0 µM,103%
same,residual activity,BTK (human); compound 10.0 µM,103%
same,residual activity,DYRK1A (human); compound 0.1 µM,83%
same,residual activity,DYRK1A (human); compound 1.0 µM,91%
same,residual activity,DYRK1A (human); compound 10.0 µM,84%
same,residual activity,EPHB3 (human); compound 0.1 µM,104%
same,residual activity,EPHB3 (human); compound 1.0 µM,100%
same,residual activity,EPHB3 (human); compound 10.0 µM,86%
same,residual activity,MAPK14 (human); compound 0.1 µM,95%
same,residual activity,MAPK14 (human); compound 1.0 µM,87%
same,residual activity,MAPK14 (human); compound 10.0 µM,80%
same,residual activity,MAPKAPK5 (human); compound 0.1 µM,89%
same,residual activity,MAPKAPK5 (human); compound 1.0 µM,99%
same,residual activity,MAPKAPK5 (human); compound 10.0 µM,90%
same,residual activity,DYRK2 (human); compound 0.1 µM,116%
same,residual activity,DYRK2 (human); compound 1.0 µM,124%
same,residual activity,DYRK2 (human); compound 10.0 µM,119%
same,residual activity,ROCK2 (rat); compound 0.1 µM,110%
same,residual activity,ROCK2 (rat); compound 1.0 µM,94%
same,residual activity,ROCK2 (rat); compound 10.0 µM,116%
same,residual activity,MAP2K6 (human); compound 0.1 µM,102%
same,residual activity,MAP2K6 (human); compound 1.0 µM,98%
same,residual activity,MAP2K6 (human); compound 10.0 µM,99%
same,residual activity,MAPK13 (human); compound 0.1 µM,90%
same,residual activity,MAPK13 (human); compound 1.0 µM,99%
same,residual activity,MAPK13 (human); compound 10.0 µM,90%
same,residual activity,EPHA2 (human); compound 0.1 µM,103%
same,residual activity,EPHA2 (human); compound 1.0 µM,91%
same,residual activity,EPHA2 (human); compound 10.0 µM,91%
same,residual activity,RPS6KA5 KD1 KD2 (human); compound 0.1 µM,110%
same,residual activity,RPS6KA5 KD1 KD2 (human); compound 1.0 µM,104%
same,residual activity,RPS6KA5 KD1 KD2 (human); compound 10.0 µM,95%
same,residual activity,CSNK2A1 (human); compound 0.1 µM,78%
same,residual activity,CSNK2A1 (human); compound 1.0 µM,87%
same,residual activity,CSNK2A1 (human); compound 10.0 µM,83%
same,residual activity,HIPK2 (human); compound 0.1 µM,108%
same,residual activity,HIPK2 (human); compound 1.0 µM,106%
same,residual activity,HIPK2 (human); compound 10.0 µM,106%
same,residual activity,PRKCZ (human); compound 0.1 µM,106%
same,residual activity,PRKCZ (human); compound 1.0 µM,108%
same,residual activity,PRKCZ (human); compound 10.0 µM,92%
same,residual activity,EEF2K (human); compound 0.1 µM,93%
same,residual activity,EEF2K (human); compound 1.0 µM,76%
same,residual activity,EEF2K (human); compound 10.0 µM,69%
same,residual activity,TAOK1 (human); compound 0.1 µM,102%
same,residual activity,TAOK1 (human); compound 1.0 µM,108%
same,residual activity,TAOK1 (human); compound 10.0 µM,91%
same,residual activity,EPHB1 (human); compound 0.1 µM,126%
same,residual activity,EPHB1 (human); compound 1.0 µM,108%
same,residual activity,EPHB1 (human); compound 10.0 µM,115%
same,residual activity,ERBB4 (human); compound 0.1 µM,127%
same,residual activity,ERBB4 (human); compound 10.0 µM,105%
same,residual activity,NEK6 (human); compound 0.1 µM,92%
same,residual activity,NEK6 (human); compound 1.0 µM,86%
same,residual activity,NEK6 (human); compound 10.0 µM,84%
